Target: EBI2 (Homo sapiens, UniProt P32249)
Test: Cell-based luminescent assay (EBI2 modulation)
Conditions: cell-based luminescence; 7a,25-OHC final assay concentration 80 nM; 60 minutes incubation; read-out: IC50
Description: Cell-Based Luminescent Assay
To assess EBI2 modulation, the compounds described herein were assayed in the following cell-based luminescent assay:
1) Plated 600 cells/well in 4 uL of assay media into columns 1-48 of a 1536-well assay plate, using a liquid dispenser.
2) Centrifuged plates at 1000 rpm for 1 minute and covered with lids.
3) Incubated overnight at 37° C., 100% relative humidity, 5% CO2.
1) Centrifuged compound plates containing compounds described herein at 500 rpm for 1 minute.
2) Added compounds into assay plate col 5-48 to final concentration 4-5 uM. Added matching amount of DMSO to positive and negative control wells in columns 1-4.
3) Dispensed 2 ul/well of assay media to columns 1-2 for the positive control wells.
4) Added 2 ul/well of 400 nM 7a,25-OHC (final assay concentration=80 nM) in assay media to columns 3-48 for the negative control and test compound wells.
5) Centrifuged plates at 1000 rpm for 1 minute and re-lid plates.
6) Incubated plates at 37° C., 100% relative humidity, 5% CO2 for 60 minutes.
7) Following 60 minute incubation, delivered 2.5 uL of Detection Reagent solution to each assay plate (Columns 1-48) using a liquid handler.
8) Centrifuged plates at 2000 rpm for 2 minutes and re-lid plates.
9) Incubated plates for 60 minutes at 25 degrees in the dark.
10) Read plates using the Viewlux, Envision or other suitable plate reader using a luminescence detection.
The experimental values were normalized by the difference between values from neutral and stimulator control wells in each plate. Then normalized data was corrected to remove systematic plate patterns due to artifacts such as dispensing tip issues etc.

EBI2, sequence (P32249 whole entry): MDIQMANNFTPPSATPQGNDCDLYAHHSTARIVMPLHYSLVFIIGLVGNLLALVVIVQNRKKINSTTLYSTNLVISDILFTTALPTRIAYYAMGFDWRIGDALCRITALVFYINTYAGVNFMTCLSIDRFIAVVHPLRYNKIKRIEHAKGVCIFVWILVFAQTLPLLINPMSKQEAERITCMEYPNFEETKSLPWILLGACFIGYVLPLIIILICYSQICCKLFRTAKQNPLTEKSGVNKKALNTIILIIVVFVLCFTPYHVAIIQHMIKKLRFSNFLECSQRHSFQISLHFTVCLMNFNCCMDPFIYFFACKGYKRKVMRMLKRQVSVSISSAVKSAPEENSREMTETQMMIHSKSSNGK

Substance | IC50 [nM]
1-(4-{[4-fluoro-2-(trifluoromethyl)phenyl]carbonyl}piperazinyl)-3-[4-(trifluoromethyl)phenyl]prop-2-yn-1-one [Compound C325] | < 100
1-(4-{[4-fluoro-2-(trifluoromethyl)phenyl]carbonyl}piperazinyl)-3-phenylprop-2-yn-1-one [Compound C321] | < 100
1-(4-{[4-fluoro-2-(trifluoromethyl)phenyl]methyl}piperazinyl)-3-(4-methylphenyl)prop-2-yn-1-one [Compound C459] | 100 to 500
1-[4-(diphenylmethyl)piperazinyl]-3-(4-bromo-2-fluorophenyl)prop-2-yn-1-one [Compound C107] | < 100
1-{4-[(4-bromophenyl)carbonyl]piperazinyl}-3-(4-chlorophenyl)prop-2-yn-1-one [Compound C19] | < 100
1-{4-[(4-bromophenyl)methyl]piperazinyl}-3-(4-chlorophenyl)prop-2-yn-1-one [Compound C383] | < 100
1-{4-[(4-fluorophenyl)carbonyl]piperazinyl}-3-[2-(trifluoromethyl)phenyl]prop-2-yn-1-one [Compound C393] | < 100
1-{4-[(4-fluorophenyl)methyl]piperazinyl}-3-[2-(trifluoromethyl)phenyl]prop-2-yn-1-one [Compound C438] | 100 to 500
1-{4-[(4-methoxyphenyl)carbonyl]piperazinyl}-3-[2-(trifluoromethyl)phenyl]prop-2-yn-1-one [Compound C373] | < 100
1-{4-[(4-methoxyphenyl)methyl]piperazinyl}-3-[4-(trifluoromethyl)phenyl]prop-2-yn-1-one [Compound C352] | < 100
3-(2,3-dichlorophenyl)-1-[4-(diphenylmethyl)piperazinyl]prop-2-yn-1-one [Compound C25] | < 100
3-(2,3-dichlorophenyl)-1-{4-[(4-chlorophenyl)carbonyl]piperazinyl}prop-2-yn-1-one [Compound C30] | < 100
3-(2,3-dichlorophenyl)-1-{4-[(4-chlorophenyl)methyl]piperazinyl}prop-2-yn-1-one [Compound C275] | < 100
3-(3,4-dichlorophenyl)-1-[4-(diphenylmethyl)piperazinyl]prop-2-yn-1-one [Compound C77] | < 100
3-(3,4-dichlorophenyl)-1-{4-[(4-chlorophenyl)carbonyl]piperazinyl}prop-2-yn-1-one [Compound C51] | < 100
3-(3,4-dichlorophenyl)-1-{4-[(4-chlorophenyl)methyl]piperazinyl}prop-2-yn-1-one [Compound C291] | 100 to 500

Substance | IC50 [nM]
3-(3,5-difluorophenyl)-1-(4-{[4-(trifluoromethyl)phenyl]carbonyl}piperazinyl)prop-2-yn-1-one [Compound C398] | 100 to 500
3-(4-bromophenyl)-1-{4-[(4-bromophenyl)methyl]piperazinyl}prop-2-yn-1-one [Compound C364] | < 100
3-(4-bromophenyl)-1-{4-[(4-chlorophenyl)methyl]piperazinyl}prop-2-yn-1-one [Compound C342] | < 100
3-(4-fluorophenyl)-1-{4-[(4-fluorophenyl)methyl]piperazinyl}prop-2-yn-1-one [Compound C446] | 100 to 500
3-[4-(trifluoromethyl)phenyl]-1-(4-{[4-(trifluoromethyl)phenyl]methyl}piperazinyl)prop-2-yn-1-one [Compound C411] | 100 to 500
4,6-dichloroindol-2-yl 4-(diphenylmethyl)piperazinyl ketone [Compound C250] | < 100
4-(diphenylmethyl)piperazinyl 2-naphthyl ketone [Compound C101] | < 100
4-(diphenylmethyl)piperazinyl 6-bromoindol-2-yl ketone [Compound C108] | < 100
4-(diphenylmethyl)piperazinyl 6-fluoro(3-quinolyl) ketone [Compound C227] | < 100
4-(diphenylmethyl)piperazinyl indol-6-yl ketone [Compound C370] | < 100
4-[(2,4-difluorophenyl)methyl]piperazinyl 5-(trifluoromethyl)indol-2-yl ketone [Compound C412] | 100 to 500
4-[(4-bromophenyl)sulfonyl]piperazinyl 5-chloroindol-2-yl ketone [Compound C333] | < 100
4-[(4-bromophenyl)sulfonyl]piperazinyl 5-methylindol-2-yl ketone [Compound C143] | < 100
4-[(4-chlorophenyl)methyl]piperazinyl 2-(trifluoromethyl)benzimidazol-5-yl ketone [Compound C170] | 500 to 5000
4-bromophenyl 4-{[4-(methylethyl)phenyl]methyl}piperazinyl ketone [Compound C176] | 500 to 5000
4-{[2-fluoro-4-(trifluoromethyl)phenyl]carbonyl}piperazinyl 5-(trifluoromethyl)indol-2-yl ketone [Compound C360] | < 100

More lines, now with the values ahead:

IC50 [nM] | Substance
100 to 500 | 1-(4-{[4-fluoro-2-(trifluoromethyl)phenyl]methyl}piperazinyl)-3-[4-(trifluoromethyl)phenyl]prop-2-yn-1-one [Compound C432]
< 100 | 1-[4-(diphenylmethyl)piperazinyl]-3-(4-bromophenyl)prop-2-yn-1-one [Compound C50]
100 to 500 | 1-[4-(diphenylmethyl)piperazinyl]-3-[2-(trifluoromethyl)phenyl]prop-2-yn-1-one [Compound C443]
100 to 500 | 3-(2,4-difluorophenyl)-1-{4-[(4-fluorophenyl)carbonyl]piperazinyl}prop-2-yn-1-one [Compound C424]
< 100 | 3-(3,4-dichlorophenyl)-1-{4-[(4-fluorophenyl)carbonyl]piperazinyl}prop-2-yn-1-one [Compound C93]
100 to 500 | 3-(3,5-difluorophenyl)-1-(4-{[4-fluoro-2-(trifluoromethyl)phenyl]methyl}piperazinyl)prop-2-yn-1-one [Compound C422]
100 to 500 | 3-(3,5-difluorophenyl)-1-[4-(diphenylmethyl)piperazinyl]prop-2-yn-1-one [Compound C419]
100 to 500 | 3-(3,5-difluorophenyl)-1-{4-[(4-fluorophenyl)carbonyl]piperazinyl}prop-2-yn-1-one [Compound C410]
100 to 500 | 3-(3,5-difluorophenyl)-1-{4-[(4-methoxyphenyl)carbonyl]piperazinyl}prop-2-yn-1-one [Compound C467]
< 100 | 3-(4-bromophenyl)-1-{4-[(4-chlorophenyl)carbonyl]piperazinyl}prop-2-yn-1-one [Compound C55]
< 100 | 3-(4-methylphenyl)-1-(4-{[4-(trifluoromethyl)phenyl]methyl}piperazinyl)prop-2-yn-1-one [Compound C346]
100 to 500 | 4-(diphenylmethyl)piperazinyl 1-methylindol-5-yl ketone [Compound C433]
< 100 | 4-(diphenylmethyl)piperazinyl 5-bromobenzo[b]thiophen-2-yl ketone [Compound C207]
< 100 | 4-(diphenylmethyl)piperazinyl 5-bromoindol-2-yl ketone [Compound C43]
< 100 | 4-(diphenylmethyl)piperazinyl 5-chlorobenzo[b]thiophen-2-yl ketone [Compound C36]
< 100 | 4-(diphenylmethyl)piperazinyl 5-hydroxyindol-2-yl ketone [Compound C348]
< 100 | 4-(diphenylmethyl)piperazinyl 8-fluoro(3-quinolyl) ketone [Compound C386]
100 to 500 | 4-(diphenylmethyl)piperazinyl pyrrolo[2,3-c]pyridin-2-yl ketone [Compound C431]
100 to 500 | 4-[(3,5-dimethylphenyl)methyl]piperazinyl 5-methylindol-2-yl ketone [Compound C359]
< 100 | 4-[(4-chlorophenyl)carbonyl]piperazinyl 5-(trifluoromethyl)indol-2-yl ketone [Compound C64]
< 100 | 4-{3-[4-(diphenylmethyl)piperazinyl]-3-oxoprop-1-ynyl}benzenecarbonitrile [Compound C326]
< 100 | 4-{[3,5-bis(trifluoromethyl)phenyl]carbonyl}piperazinyl 5-(trifluoromethyl)indol-2-yl ketone [Compound C330]
< 100 | 4-{[3-fluoro-4-(trifluoromethyl)phenyl]methyl}piperazinyl 5-(trifluoromethyl)indol-2-yl ketone [Compound C389]
< 100 | 4-{[4-((2E)-3-phenylprop-2-enoyl)piperazinyl]methyl}benzenecarbonitrile [Compound C335]
